{
  "source": "patent US8173595B2",
  "about": "“Methods and compositions for the inhibition of thrombus formation” (The Board of Trustees of the University of Illinois, priority 2004, dated 2012)",
  "key": {"[1]": {"test_system": "platelets (platelet-rich plasma from healthy donors)", "assay": "Ristocetin-induced (vWF-dependent) platelet aggregation in platelet-rich plasma", "format": "cell-based, human", "protocol": "(§1) Platelet preparation and aggregation. Blood was drawn from healthy donors, and was anti-coagulated with 1/10 volume of 3.8% trisodium citrate. Platelet-rich plasma (PRP) was obtained by centrifugation at 300×g for 20 min at 22° C. Platelet aggregation was measured using a turbidometric platelet aggregometer at 37° C. with a stirring speed at 1000 rpm. To examine the effects of peptides, various concentrations of each peptide was preincubated with platelets at 22° C. for 5 min. In some experiments, intergrin inhibitor RGDS (1 mM) was also added to exclude the roles of β3 integrins."}, "[2]": {"molecular_target": "T1, 14-3-3 binding to GPIb-IX (Homo sapiens, UniProt P63104)", "T1 construct": "GPIb-IX: platelet lysate", "T1 sequence (P63104 1-245)": "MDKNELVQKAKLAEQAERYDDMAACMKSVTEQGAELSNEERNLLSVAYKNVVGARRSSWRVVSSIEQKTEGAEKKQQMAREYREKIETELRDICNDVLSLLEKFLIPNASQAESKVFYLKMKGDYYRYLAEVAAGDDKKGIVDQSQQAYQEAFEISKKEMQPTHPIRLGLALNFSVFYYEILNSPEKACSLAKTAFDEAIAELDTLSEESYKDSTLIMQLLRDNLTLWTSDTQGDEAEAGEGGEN", "assay": "Binding of GPIb-IX from platelet lysates to 14-3-3-conjugated beads (Western blot)", "details": "recombinant 14-3-3-MBP beads, FIG. 1B", "protocol": "14-3-3 binding to GPIb-IX. Binding of GPIb-IX to 14-3-3-conjugated beads were performed as previously described (Du et al., J. Biol. Chem., 271:7362-7367 (1996)). Briefly, 14-3-3-conjugated Sepharose 4B beads and maltose-binding protein (MBP)-conjugated control beads were preincubated with various concentrations of synthetic peptides at 4° C. for 1 h, and then with platelet lysates for an additional 1 h. The beads were washed three times. Bound GPIb-IX was detected by Western blot with a monoclonal antibody against GPIbα, WM23."}, "platelet adhesion to vWF": {"test_system": "platelet adhesion to vWF", "assay": "Platelet adhesion under flow in vWF-coated glass capillaries", "format": "cell-based", "details": "washed platelets, in the presence of RGDS, FIG. 4A", "protocol": "Platelet adhesion under flow. Washed platelets (3×10^8/ml) were preincubated with various concentrations of synthetic peptides at 22° C. for 10 min, the platelets were perfused into the vWF-coated glass capillaries using a PhD syringe pump (Harvard Apparatus Inc.) at various shear rates for 8 min. Transient adhesion of platelets on the vWF-coated surface was recorded on video cassette recorder. Adherent platelets were counted in 10 randomly selected fields of 0.25 mm^2 within a 10 second time period."}, "[3]": {"test_system": "platelets (platelet-rich plasma)", "assay": "Platelet aggregation induced by ADP, collagen or thromboxane A2 analog U46619", "format": "cell-based, human", "details": "collagen, thromboxane A2 analog U46619, FIGS. 2C, 2D, 2E", "protocol": "as §1"}, "Tail-bleeding time": {"assay": "Tail-bleeding time", "format": "in vivo, C57 black mice", "details": "infused into jugular vein, 5 min circulation, compared with MαC or MαCsc, p<0.0001, FIG. 4B", "protocol": "Tail-bleeding time. Bleeding times were performed with 6-8-wk-old adult C57 black mice anesthetized with an intraperitoneal injection of avertin. The internal jugular vein was surgically exposed, and a total volume of 50 μl of a peptide (5 mM) was infused using a 27 G needle. Experiments were performed in a double-blinded fashion. After 5 min, tails were amputated 5 mm from the tail tip, and immersed in a tube containing 0.15M NaCl maintained at 37° C. Bleeding was visually followed and timed. Maximum bleeding time allowed was 10 min after which the tail was cauterized. Statistical differences between the groups were examined using Mann-Whitney test and InStat software."}, "[4]": {"test_system": "GPIb-IX-dependent platelet agglutination", "assay": "Ristocetin-induced GPIb-IX-specific platelet agglutination in the presence of RGDS", "format": "cell-based, human", "details": "PRP, in the presence of 1 mM RGDS, ristocetin 1.25 mg/ml, FIG. 2A, 2B", "protocol": "as §1"}, "[5]": {"test_system": "vWF binding to GPIb-IX on washed human platelets", "assay": "Flow cytometry analysis of ristocetin-induced vWF binding to platelets", "format": "cell-based", "details": "10 mM EDTA or RGDS, ristocetin 1 mg/ml, FIG. 3", "protocol": "Flow cytometry analysis of VWF binding to platelets. Flow cytometry analysis of vWF binding to platelets has been described previously 8,9. Washed platelets (1.0×10^7/ml) were prepared as described previously (Englund et al., J. Biol. Chem., 276:16952-16959 (2001); Bodnar et al., J. Biol. Chem. 277:47080-47087 (2002)), and resuspended in phosphate-buffered saline (PBS) solution (0.01 M NaH2PO4, 0.15 M NaCl, pH 7.4) containing 10 mM EDTA and 1% BSA. Platelets were preincubated with various concentrations of synthetic peptides at 22° C. for 10 min before incubating with purified vWF (35 μg/ml) and ristocetin (1.0 mg/ml) at 22° C. for 30 min. Platelets were washed once, further incubated in the same buffer containing 10 μg/ml FITC-labeled SZ-29 in the dark at 22° C. for 30 min and then analyzed by flow cytometry. As negative controls, platelets were incubated in the presence of ristocetin alone then incubated with FITC-labeled SZ29."}, "platelets": {"test_system": "platelets", "assay": "Botrocetin-induced platelet agglutination", "format": "cell-based"}},
  "note": "Where no end group is shown, it is not given here. [ ]: non-standard residue; d: D form. The star is where a group is joined. Myristoyl = CCCCCCCCCCCCCC(=O)*; pS = N[C@@H](COP(=O)(O)O)C(=O)O",
  "data": [
    {"compound": "CCCCCCCCCCCCCC(=O)OC(=O)CCCCCCCCCCCCC", "note": "[myristic anhydride (MA), myristic anhydride]", "values": [
      {"measurement": "ristocetin-induced platelet aggregation", "setting": "[1]; PRP, 100 μM, FIG. 1D, 1E", "result": "no effect"}
    ]},
    {"compound": "C13H27CONH-LSISYGSHR (Myristoyl-LSISYGSHR) [MαCsc, myristoylated scrambled control peptide]", "values": [
      {"measurement": "ristocetin-induced platelet aggregation", "setting": "[1]; PRP, 100 μM, FIG. 1D, 1E", "result": "no significant effect"},
      {"measurement": "binding of GPIb-IX to 14-3-3 beads", "setting": "[2]", "result": "not"}
    ]},
    {"compound": "C13H27CONH-SIRYSGHDL (Myristoyl-SIRYSGHDL) [MSDαC, myristoylated peptide replacing phosphorylated serine 609 with aspartic acid to simulate phosphoserine]", "values": [
      {"measurement": "ristocetin-induced platelet aggregation", "setting": "[1]; PRP preincubated at room temperature for 5 min, FIG. 5", "result": "completely inhibited"}
    ]},
    {"compound": "C13H27CONH-SIRYSGHSL (Myristoyl-SIRYSGHSL) [MαC]", "values": [
      {"measurement": "ristocetin-induced platelet aggregation", "setting": "[1]; PRP, 100 μM, FIG. 1D, 1E", "result": "no significant effect"},
      {"measurement": "binding of GPIb-IX to 14-3-3 beads", "setting": "[2]", "result": "not"}
    ]},
    {"compound": "C13H27CONH-SIRYSGHpSL (Myristoyl-SIRYSGH[pS]L) [MPαC]", "values": [
      {"measurement": "adhesion of platelets on vWF surface under flow", "setting": "platelet adhesion to vWF", "result": "almost no adhesion"},
      {"measurement": "vWF-dependent platelet aggregation induced by ristocetin", "setting": "[1]; PRP preincubated with increasing concentrations of peptide, FIG. 1C", "result": "dose-dependently inhibited"},
      {"measurement": "platelet aggregation induced by platelet agonists", "setting": "[3]", "result": "no inhibitory effect"},
      {"measurement": "median tail bleeding time", "setting": "Tail-bleeding time", "result": "significantly prolonged"},
      {"measurement": "ristocetin-induced platelet agglutination", "setting": "[4]", "result": "completely inhibited"},
      {"measurement": "ristocetin-induced vWF binding to platelets", "setting": "[5]", "result": "inhibited"},
      {"measurement": "botrocetin-induced platelet agglutination", "setting": "platelets", "result": "inhibited"},
      {"measurement": "binding of GPIb-IX to 14-3-3 beads", "setting": "[2]", "result": "abolished"}
    ]},
    {"compound": "SIRYSGHpSL [PαC]", "values": [
      {"measurement": "ristocetin-induced platelet aggregation", "setting": "[1]; PRP, 100 μM, FIG. 1D, 1E", "result": "no effect"}
    ]}
  ]
}
